From ChEMBL document CHEMBL1201862, “PubChem BioAssay data set” (2004) come the findings set out here.

Assay [1] addresses Serine/threonine-protein phosphatase PP1-alpha catalytic subunit (Homo sapiens, UniProt P62136). In words: inhibition of protein phosphatase 1 activity – biochemical, fluorescence, dose response (AID 2394).
The target in assay [2] is Serine/threonine-protein kinase D3 (Homo sapiens, UniProt O94806). Format: functional.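 Note: determined within a kinase panel screen, with PRKCN as the panel member.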
For assay [3], the target named is Cyclin-dependent kinase 8 (Homo sapiens, UniProt P49336). In words: Navigating the Kinome. Panel member name: CDK8. Format: functional.
The target in the next assay is T1, Exodeoxyribonuclease V (Escherichia coli (strain K12), UniProt P04993+P07648+P08394).
T1 sequence (P04993 whole entry): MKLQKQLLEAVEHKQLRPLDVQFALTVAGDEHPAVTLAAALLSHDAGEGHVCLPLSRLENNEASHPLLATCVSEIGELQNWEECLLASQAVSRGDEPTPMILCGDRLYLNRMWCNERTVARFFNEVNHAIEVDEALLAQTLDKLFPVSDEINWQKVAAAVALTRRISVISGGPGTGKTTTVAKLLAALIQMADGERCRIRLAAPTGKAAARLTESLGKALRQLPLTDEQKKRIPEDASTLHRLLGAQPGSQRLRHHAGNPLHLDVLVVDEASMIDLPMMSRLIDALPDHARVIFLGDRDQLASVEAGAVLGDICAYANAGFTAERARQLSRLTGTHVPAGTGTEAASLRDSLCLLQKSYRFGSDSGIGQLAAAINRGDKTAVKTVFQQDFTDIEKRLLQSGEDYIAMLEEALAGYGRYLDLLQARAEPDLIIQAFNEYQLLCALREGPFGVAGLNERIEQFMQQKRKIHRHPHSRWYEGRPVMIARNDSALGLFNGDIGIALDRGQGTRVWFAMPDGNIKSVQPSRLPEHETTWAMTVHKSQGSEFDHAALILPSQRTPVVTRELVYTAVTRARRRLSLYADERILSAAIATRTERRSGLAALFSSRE
T1 sequence (P07648 whole entry): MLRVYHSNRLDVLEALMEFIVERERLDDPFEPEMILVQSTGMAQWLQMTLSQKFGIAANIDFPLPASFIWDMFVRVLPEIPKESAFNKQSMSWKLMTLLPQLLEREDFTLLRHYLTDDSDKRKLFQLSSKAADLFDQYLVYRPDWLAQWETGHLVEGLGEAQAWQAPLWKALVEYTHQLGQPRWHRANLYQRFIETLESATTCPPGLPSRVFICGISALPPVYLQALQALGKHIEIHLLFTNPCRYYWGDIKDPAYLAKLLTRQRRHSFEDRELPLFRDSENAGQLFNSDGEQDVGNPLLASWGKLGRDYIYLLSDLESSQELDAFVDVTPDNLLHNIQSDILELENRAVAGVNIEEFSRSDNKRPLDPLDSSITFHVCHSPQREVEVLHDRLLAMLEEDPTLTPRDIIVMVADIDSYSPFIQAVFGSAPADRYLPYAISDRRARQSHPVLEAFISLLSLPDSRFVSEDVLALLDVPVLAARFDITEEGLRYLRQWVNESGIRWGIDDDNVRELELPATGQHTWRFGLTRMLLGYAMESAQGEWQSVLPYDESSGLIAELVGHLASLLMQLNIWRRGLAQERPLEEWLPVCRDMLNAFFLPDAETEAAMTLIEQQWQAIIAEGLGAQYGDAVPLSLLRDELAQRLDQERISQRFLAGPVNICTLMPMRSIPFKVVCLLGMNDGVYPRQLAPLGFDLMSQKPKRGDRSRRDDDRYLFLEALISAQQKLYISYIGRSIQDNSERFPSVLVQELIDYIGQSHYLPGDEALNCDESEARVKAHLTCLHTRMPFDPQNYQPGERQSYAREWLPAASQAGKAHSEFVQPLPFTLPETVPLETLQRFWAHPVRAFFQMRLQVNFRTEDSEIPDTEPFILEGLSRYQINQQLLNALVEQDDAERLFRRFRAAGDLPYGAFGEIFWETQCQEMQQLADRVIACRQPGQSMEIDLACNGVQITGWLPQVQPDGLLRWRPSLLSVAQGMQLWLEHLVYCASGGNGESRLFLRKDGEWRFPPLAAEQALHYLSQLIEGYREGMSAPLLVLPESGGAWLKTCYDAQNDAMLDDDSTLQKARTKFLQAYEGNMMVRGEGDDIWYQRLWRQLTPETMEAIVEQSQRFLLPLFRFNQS
T1 sequence (P08394 whole entry): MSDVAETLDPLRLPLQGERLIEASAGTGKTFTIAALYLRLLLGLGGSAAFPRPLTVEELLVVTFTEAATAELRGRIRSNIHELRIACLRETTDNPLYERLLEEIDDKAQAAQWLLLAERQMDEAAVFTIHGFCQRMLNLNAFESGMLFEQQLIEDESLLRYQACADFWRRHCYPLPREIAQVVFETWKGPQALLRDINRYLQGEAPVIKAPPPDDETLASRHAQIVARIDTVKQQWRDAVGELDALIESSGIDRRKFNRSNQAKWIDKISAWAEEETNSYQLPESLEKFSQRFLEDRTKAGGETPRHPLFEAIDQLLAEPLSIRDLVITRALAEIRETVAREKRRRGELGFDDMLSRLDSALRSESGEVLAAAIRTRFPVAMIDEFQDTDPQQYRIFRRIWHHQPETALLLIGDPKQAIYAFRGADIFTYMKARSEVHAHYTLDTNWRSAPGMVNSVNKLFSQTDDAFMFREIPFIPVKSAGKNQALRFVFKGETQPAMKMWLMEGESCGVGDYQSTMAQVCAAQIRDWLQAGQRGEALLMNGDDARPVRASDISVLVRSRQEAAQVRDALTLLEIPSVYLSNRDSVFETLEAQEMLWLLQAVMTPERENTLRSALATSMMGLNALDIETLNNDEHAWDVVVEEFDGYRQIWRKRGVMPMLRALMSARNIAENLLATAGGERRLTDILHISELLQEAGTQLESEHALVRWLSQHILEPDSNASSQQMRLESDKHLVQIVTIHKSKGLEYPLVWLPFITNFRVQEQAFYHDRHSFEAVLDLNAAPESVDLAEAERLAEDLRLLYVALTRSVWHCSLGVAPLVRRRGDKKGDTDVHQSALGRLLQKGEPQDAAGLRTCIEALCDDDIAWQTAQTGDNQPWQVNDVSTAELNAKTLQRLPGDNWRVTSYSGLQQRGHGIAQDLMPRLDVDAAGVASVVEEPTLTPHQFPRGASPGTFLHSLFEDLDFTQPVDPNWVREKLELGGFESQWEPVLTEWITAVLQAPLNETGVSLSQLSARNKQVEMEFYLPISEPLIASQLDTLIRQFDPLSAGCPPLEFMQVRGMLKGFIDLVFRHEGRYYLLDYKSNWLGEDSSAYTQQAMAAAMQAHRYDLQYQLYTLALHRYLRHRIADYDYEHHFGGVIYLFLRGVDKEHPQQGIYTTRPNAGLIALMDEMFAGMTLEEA
The experiment in a line: RecBCD inhibition via phage-restricted bacterial growth – absorbance, V66 E. coli, mutant T4 phage, counter-screen for AddAB inhibitor project, dose response (AID 492957). Format: functional, cell-based, Escherichia coli str. K-12 substr. MG1655. (In general: A counterscreen serves to expose hits that act by an unwanted route or on another target.)

Assay [4] is described as follows: fluconazole-exposed Candida albicans growth modulators – fluorescence, retest, confirmation (AID 2467). The class given is functional, cell-based.

Active and inactive are the calls of the source. A value given as a limit tells only on which side of the number the result lay.

Cyclin-dependent kinase 8, sequence (P49336 whole entry): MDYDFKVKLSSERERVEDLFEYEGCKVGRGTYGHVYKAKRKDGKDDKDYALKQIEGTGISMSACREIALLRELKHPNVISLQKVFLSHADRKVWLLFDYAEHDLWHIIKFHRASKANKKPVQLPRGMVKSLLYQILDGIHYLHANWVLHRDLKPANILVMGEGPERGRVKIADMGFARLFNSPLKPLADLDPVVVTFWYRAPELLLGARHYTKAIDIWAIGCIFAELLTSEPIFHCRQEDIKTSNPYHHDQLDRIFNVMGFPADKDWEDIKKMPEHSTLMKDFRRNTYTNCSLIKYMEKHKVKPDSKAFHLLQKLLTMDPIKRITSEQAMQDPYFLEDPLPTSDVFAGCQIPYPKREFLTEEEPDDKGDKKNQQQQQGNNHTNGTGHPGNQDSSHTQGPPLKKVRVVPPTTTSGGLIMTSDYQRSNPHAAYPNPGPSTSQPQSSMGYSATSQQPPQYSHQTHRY
Serine/threonine-protein kinase D3, sequence (O94806 whole entry): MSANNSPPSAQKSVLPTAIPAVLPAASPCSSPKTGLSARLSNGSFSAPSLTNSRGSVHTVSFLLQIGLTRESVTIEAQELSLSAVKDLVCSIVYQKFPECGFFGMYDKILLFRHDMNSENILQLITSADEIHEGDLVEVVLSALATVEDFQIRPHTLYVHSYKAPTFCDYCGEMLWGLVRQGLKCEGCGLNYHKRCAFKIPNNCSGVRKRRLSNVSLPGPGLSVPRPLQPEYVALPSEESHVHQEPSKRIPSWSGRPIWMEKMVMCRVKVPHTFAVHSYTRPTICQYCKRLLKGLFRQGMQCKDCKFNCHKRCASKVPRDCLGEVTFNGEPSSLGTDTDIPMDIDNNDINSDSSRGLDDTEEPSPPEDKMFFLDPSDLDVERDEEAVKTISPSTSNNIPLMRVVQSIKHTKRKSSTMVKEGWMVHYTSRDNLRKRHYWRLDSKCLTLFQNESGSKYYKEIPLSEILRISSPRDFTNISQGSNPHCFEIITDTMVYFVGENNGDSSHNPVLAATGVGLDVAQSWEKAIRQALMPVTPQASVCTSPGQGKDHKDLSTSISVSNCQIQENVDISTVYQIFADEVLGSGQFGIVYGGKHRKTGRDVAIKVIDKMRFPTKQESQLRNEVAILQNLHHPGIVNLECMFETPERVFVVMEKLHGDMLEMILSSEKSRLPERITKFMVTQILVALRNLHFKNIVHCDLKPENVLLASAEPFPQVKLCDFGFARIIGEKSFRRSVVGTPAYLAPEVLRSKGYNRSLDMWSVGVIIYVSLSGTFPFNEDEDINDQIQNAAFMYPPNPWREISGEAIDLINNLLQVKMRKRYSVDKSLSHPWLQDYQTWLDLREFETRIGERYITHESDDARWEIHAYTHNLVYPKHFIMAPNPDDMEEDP
Serine/threonine-protein phosphatase PP1-alpha catalytic subunit, sequence (P62136 whole entry): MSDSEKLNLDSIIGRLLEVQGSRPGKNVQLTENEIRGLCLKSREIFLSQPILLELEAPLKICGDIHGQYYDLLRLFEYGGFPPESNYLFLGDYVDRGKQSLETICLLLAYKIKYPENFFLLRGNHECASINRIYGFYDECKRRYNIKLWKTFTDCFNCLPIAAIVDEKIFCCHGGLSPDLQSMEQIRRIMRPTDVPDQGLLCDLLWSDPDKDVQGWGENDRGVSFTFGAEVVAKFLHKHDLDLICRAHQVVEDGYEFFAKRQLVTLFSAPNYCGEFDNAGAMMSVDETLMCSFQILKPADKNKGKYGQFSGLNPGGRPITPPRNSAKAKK

Turning to `NS(=O)(=O)c1ccc(NC2=CC(=O)C(=O)c3ccccc32)cc1`, the IC50 (as a rule, the concentration that inhibits the measured activity by half) in assay [1] is recorded as 38.9 µM (not active).

Consider `Clc1cc(-c2c[nH]c3ncccc23)nc(NC2CCCCC2)n1`, for which the Ki (in general, a dissociation constant, usually derived from enzyme kinetics or from competition with a known ligand) in assay [2] is > 2 µM (inactive); in assay [3], 0.00398 µM (active). As to `O=C(N/N=C/c1ccc(O)cc1O)c1ccc(CN2C(=O)c3cccc4cccc2c34)cc1`, the IC50 on Exodeoxyribonuclease V was > 119 µM (inactive). Also, in assay [4], the concentration giving a half-maximal response (EC50) – broadly, the concentration that produces a half-maximal response – is 0.384 µM (active). As for `CCC(=O)NC(c1ccccc1OC)c1ccc2cccnc2c1O` (configuration not stated), the IC50 at Exodeoxyribonuclease V was > 119 µM (inactive). Besides, in assay [4], the EC50 is 1.48 µM (active).
